Target: T1, LPA/S1P GPCR of interest (Homo sapiens, UniProt Q92633)
T1 construct: host or cells: CHO
Assay: Beta-Arrestin based assay (PathHunter)
Assay type: cell-based
Description: CMV promoter based DNA constructs expressing a fusion of the LPA/S1P GPCR of interest and ProLink™ tag were used to transfect EA Parental™ CHO cells (DiscoverX, Fremont, Calif.) using a FuGENE® transfection kit (Roche). Beta-Arrestin based assays were conducted 24-48 hrs post transfection using PathHunter® assay kits (DiscoverX, Fremont, Calif.). Agonist and antagonist assays were performed in quadruplicate in white 384 well plates. End point luminescence data were plotted and fit to a 4 parameter logistic function to obtain IC50 values. For antagonist assays, an IC80 concentration of agonist (LPA) equal to 0.5 micromolar was used.

T1 sequence (Q92633 whole entry): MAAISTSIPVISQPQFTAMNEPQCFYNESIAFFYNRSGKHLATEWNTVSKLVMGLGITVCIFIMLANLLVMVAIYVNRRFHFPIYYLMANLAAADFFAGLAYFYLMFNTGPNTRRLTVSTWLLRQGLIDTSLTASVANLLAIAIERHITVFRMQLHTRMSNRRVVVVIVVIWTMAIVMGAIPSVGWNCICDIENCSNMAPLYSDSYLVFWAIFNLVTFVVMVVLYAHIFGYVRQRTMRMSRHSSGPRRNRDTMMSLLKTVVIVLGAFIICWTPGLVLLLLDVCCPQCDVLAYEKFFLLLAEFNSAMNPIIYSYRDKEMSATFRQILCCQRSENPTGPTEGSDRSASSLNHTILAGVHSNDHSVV

Compound	EC50 [nM]
CC(C)[C@@H](NC(=O)C#Cc1ccc(-c2cnn(C)c2NC(=O)O[C@H](C)c2ccccc2)cc1)C(=O)O [IT403]	> 500
Cc1nsc(-c2cc3sc(-c4ccc(-c5nnc(CC(=O)O)o5)cc4)cc3s2)c1NC(=O)O[C@H](C)c1ccccc1 [IT207]	> 500
C[C@@H](OC(=O)Nc1c(-c2cc3sc(-c4ccc(CC(=O)O)c5ccccc45)cc3s2)nnn1C)c1ccccc1 [IT318]	> 500
Cc1cc(-c2cc3sc(-c4cnn(C)c4NC(=O)O[C@H](C)c4ccccc4)cc3s2)c(F)cc1CC(=O)O [IT243]	> 500
COc1cc(C2(C(=O)O)CC2)c(OC)cc1-c1cc2sc(-c3snc(C)c3NC(=O)O[C@H](C)c3ccccc3)cc2s1 [IT413]	> 500
C[C@@H](OC(=O)Nc1c(-c2cc3sc(-c4ccc(CC(=O)O)c(S(C)(=O)=O)c4)cc3s2)nnn1C)c1ccccc1 [IT443]	> 500
C[C@@H](OC(=O)Nc1c(-c2ccc(-c3nnc(C4(C(=O)O)CC4)o3)cc2)nnn1C)c1ccccc1 [IT175]	> 500
Cc1nsc(-c2ccc(-c3ncc(C4(C(=O)O)CC4)s3)cc2)c1NC(=O)O[C@H](C)c1ccccc1 [IT210]	> 500
Cc1nsc(-c2cc3sc(-c4ccc5scc(C6(C(=O)O)CC6)c5c4)cc3s2)c1NC(=O)O[C@H](C)c1ccccc1 [IT373]	> 500
Cc1nsc(-c2cc3sc(-c4ccc(C5(C(=O)O)CC5)cc4C(F)(F)F)cc3s2)c1NC(=O)O[C@H](C)c1ccccc1 [IT248]	> 500
C[C@@H](OC(=O)Nc1c(-c2ccc(C#CC(=O)NC3(C(=O)O)CC3)cc2)cnn1C)c1ccccc1 [IT405]	> 500
COc1cc(CC(=O)O)ccc1-c1cc2sc(-c3snc(C)c3NC(=O)O[C@H](C)c3ccccc3)cc2s1 [IT163]	> 500
C[C@@H](OC(=O)Nc1c(-c2cc3sc(-c4ccc5c(C6(C(=O)O)CC6)coc5c4)cc3s2)cnn1C)c1ccccc1 [IT395]	> 500
C[C@@H](OC(=O)Nc1c(-c2cc3sc(-c4ccc(CC(=O)O)cc4OC(F)(F)F)cc3s2)nnn1C)c1ccccc1 [IT416]	> 500
C[C@@H](OC(=O)Nc1c(-c2cc3sc(-c4ccc5occ(C6(C(=O)O)CC6)c5c4)cc3s2)nnn1C)c1ccccc1 [IT335]	> 500
Cc1nsc(-c2cc3sc(-c4ccc5[nH]c(C6(C(=O)O)CC6)nc5c4)cc3s2)c1NC(=O)O[C@H](C)c1ccccc1 [IT421]	> 500
C[C@@H](OC(=O)Nc1c(-c2cc3sc(-c4ccc(CC(=O)O)cc4C(F)(F)F)cc3s2)cnn1C)c1ccccc1 [IT362]	> 500
Cc1nsc(-c2cc3sc(-c4ccc(CC(=O)O)cc4Cl)cc3s2)c1NC(=O)O[C@H](C)c1ccccc1 [IT161]	> 500
Cc1nsc(-c2cc3sc(-c4ccc(-c5nnc(C6(C(=O)O)CC6)s5)cc4)cc3s2)c1NC(=O)O[C@H](C)c1ccccc1 [IT289]	> 500
Cc1nsc(-c2cc3sc(-c4ccc(-c5nnc(C6(C(=O)O)CC6)o5)cc4)cc3s2)c1NC(=O)O[C@H](C)c1ccccc1 [IT216]	> 500
Cc1nsc(-c2cc3sc(-c4ccc(-c5nnc(CC(=O)O)s5)cc4)cc3s2)c1NC(=O)O[C@H](C)c1ccccc1 [IT213]	> 500
C[C@@H](OC(=O)Nc1[nH]ncc1C#Cc1cc2sc(C3(C(=O)O)CC3)cc2s1)c1ccccc1 [IT127]	> 500
C[C@@H](OC(=O)Nc1c(-c2cc3sc(-c4ccc(C5(C(=O)O)CC5)c(S(C)(=O)=O)c4)cc3s2)nnn1C)c1ccccc1 [IT442]	> 500
Cc1noc(-c2ccc(-c3ccc(Oc4ccc(C(=O)O)cc4)cc3)cc2)c1NC(=O)O[C@H](C)c1ccccc1 [IT368]	> 500
Cc1nsc(-c2cc3sc(-c4ccc(CC(=O)O)c5ccccc45)cc3s2)c1NC(=O)O[C@H](C)c1ccccc1 [IT317]	> 500
C[C@@H](OC(=O)Nc1c(-c2ccc(C#CC(=O)N[C@H](C(=O)O)c3ccccc3)cc2)cnn1C)c1ccccc1 [IT402]	> 500
C[C@@H](OC(=O)Nc1c(-c2cc3sc(-c4ccc5c(CC(=O)O)c[nH]c5c4)cc3s2)cnn1C)c1ccccc1 [IT377]	> 500

The remaining lines, values ahead:

EC50 [nM]	Compound
> 500	C[C@@H](OC(=O)Nc1c(-c2ccc(C#CC(=O)NCCC(=O)O)cc2)cnn1C)c1ccccc1 [IT432]
< 50	C[C@@H](OC(=O)Nc1c(-c2cc3sc(-c4cnc(C5(C(=O)O)CC5)c(F)c4)cc3s2)nnn1C)c1ccccc1 [IT393]
50 to 500	C[C@@H](OC(=O)Nc1c(-c2ccc(-c3cnc(C4(C(=O)O)CC4)s3)cc2)nnn1C)c1ccccc1 [IT278]
50 to 500	Cc1cc(-c2cc3sc(-c4snc(C)c4NC(=O)O[C@H](C)c4ccccc4)cc3s2)ccc1C1(C(=O)O)CC1 [IT325]
50 to 500	Cc1cc(-c2cc3sc(-c4cnn(C)c4NC(=O)O[C@H](C)c4ccccc4)cc3s2)ccc1CC(=O)O [IT254]
50 to 500	C[C@@H](OC(=O)Nc1c(-c2cc3sc(-c4ccc5occ(CC(=O)O)c5c4)cc3s2)cnn1C)c1ccccc1 [IT332]
> 500	Cc1nsc(-c2cc3sc(-c4ccc5occ(C6(C(=O)O)CC6)c5c4)cc3s2)c1NC(=O)O[C@H](C)c1ccccc1 [IT352]
> 500	C[C@@H](OC(=O)Nc1c(-c2cc3sc(-c4ccc(CC(=O)O)c(S(C)(=O)=O)c4)cc3s2)cnn1C)c1ccccc1 [IT445]
50 to 500	COc1cc(C2(C(=O)O)CC2)ccc1-c1cc2sc(-c3cnn(C)c3NC(=O)O[C@H](C)c3ccccc3)cc2s1 [IT264]
50 to 500	Cc1nsc(-c2cc3sc(-c4ccc(C5(C(=O)O)CC5)c(Cl)c4)cc3s2)c1NC(=O)O[C@H](C)c1ccccc1 [IT267]
50 to 500	Cc1cc(-c2cc3sc(-c4nnn(C)c4NC(=O)O[C@H](C)c4ccccc4)cc3s2)ccc1CC(=O)O [IT250]
< 50	Cc1nsc(-c2cc3sc(-c4cc(F)c(C5(C(=O)O)CC5)cc4F)cc3s2)c1NC(=O)O[C@H](C)c1ccccc1 [IT346]
50 to 500	C[C@@H](OC(=O)Nc1c(-c2cc3sc(-c4ccc(C5(C(=O)O)CC5)cc4OC(F)(F)F)cc3s2)cnn1C)c1ccccc1 [IT385]
50 to 500	Cc1nsc(-c2cc3sc(-c4ccc(C5(C(=O)O)CC5)nc4)cc3s2)c1NC(=O)O[C@H](C)c1ccccc1 [IT271]
50 to 500	COc1cc(-c2cc3sc(-c4cnn(C)c4NC(=O)O[C@H](C)c4ccccc4)cc3s2)ccc1C1(C(=O)O)CC1 [IT329]
50 to 500	C[C@@H](OC(=O)Nc1c(-c2cc3sc(-c4ccc(CC(=O)O)nc4)cc3s2)nnn1C)c1ccccc1 [IT215]
50 to 500	Cc1nsc(-c2cc3sc(-c4ccc(C5(C(=O)O)CC5)cc4Cl)cc3s2)c1NC(=O)O[C@H](C)c1ccccc1 [IT391]
50 to 500	C[C@@H](OC(=O)Nc1c(-c2cc3sc(-c4ccc(CC(=O)O)c(C(F)(F)F)c4)cc3s2)cnn1C)c1ccccc1 [IT222]
50 to 500	C[C@@H](OC(=O)Nc1c(-c2cc3sc(-c4ccc(CC(=O)O)c(C(F)(F)F)c4)cc3s2)nnn1C)c1ccccc1 [IT223]
50 to 500	Cc1nsc(-c2ccc(-c3cnc(C4(C(=O)O)CC4)s3)cc2)c1NC(=O)O[C@H](C)c1ccccc1 [IT202]

EC50 [nM]	Compound
50 to 500	Cc1cc(-c2cc3sc(-c4nnn(C)c4NC(=O)O[C@H](C)c4ccccc4)cc3s2)ccc1C1(C(=O)O)CC1 [IT324]
50 to 500	Cc1cc(-c2cc3sc(-c4cnn(C)c4NC(=O)O[C@H](C)c4ccccc4)cc3s2)c(F)cc1C1(C(=O)O)CC1 [IT339]
50 to 500	Cc1nsc(-c2ccc(-c3ccc(C4(C(=O)O)CC4)s3)cc2)c1NC(=O)O[C@H](C)c1ccccc1 [IT237]
50 to 500	C[C@@H](OC(=O)Nc1c(-c2cc3sc(-c4ccc5occ(CC(=O)O)c5c4)cc3s2)nnn1C)c1ccccc1 [IT268]
< 50	C[C@@H](OC(=O)Nc1c(-c2cc3sc(-c4ccc(C5(C(=O)O)CC5)c(Cl)c4)cc3s2)cnn1C)c1ccccc1 [IT367]
50 to 500	Cc1noc(-c2ccc(-c3ccc(Oc4cccc(C(=O)O)c4)cc3)cc2)c1NC(=O)O[C@H](C)c1ccccc1 [IT356]
50 to 500	C[C@@H](OC(=O)NC1=C(c2ccc(-c3cc(F)c(OC(C)(C)C(=O)O)c(F)c3)cc2)OC2C=CC=CC12)c1ccccc1 (stereo partly drawn) [IT501]
50 to 500	Cc1cc(-c2cc3sc(-c4nnn(C)c4NC(=O)O[C@H](C)c4ccccc4)cc3s2)c(F)cc1C1(C(=O)O)CC1 [IT340]
50 to 500	C[C@@H](OC(=O)Nc1c(-c2ccc(-c3ccc(OC(C)(C)C(=O)O)c(F)c3)cc2)oc2ccccc12)c1ccccc1 [IT504]
50 to 500	C[C@@H](OC(=O)Nc1c(-c2cc3sc(-c4ccc(C5(C(=O)O)CC5)s4)cc3s2)cnn1C)c1ccccc1 [IT272]
50 to 500	C[C@@H](OC(=O)Nc1c(-c2cc3sc(-c4ccc(CC(=O)O)nc4)cc3s2)cnn1C)c1ccccc1 [IT214]
50 to 500	COc1cc(-c2cc3sc(-c4nnn(C)c4NC(=O)O[C@H](C)c4ccccc4)cc3s2)ccc1CC(=O)O [IT220]
50 to 500	Cc1cc(-c2cc3sc(-c4cnn(C)c4NC(=O)O[C@H](C)c4ccccc4)cc3s2)ccc1C1(C(=O)O)CC1 [IT323]
50 to 500	C[C@@H](OC(=O)Nc1c(-c2cc3sc(-c4cnc(C5(C(=O)O)CC5)s4)cc3s2)cnn1C)c1ccccc1 [IT249]
50 to 500	C[C@@H](OC(=O)Nc1c(-c2cc3sc(-c4ccc5c(CC(=O)O)coc5c4)cc3s2)nnn1C)c1ccccc1 [IT369]
50 to 500	C[C@@H](OC(=O)Nc1c(-c2cc3sc(-c4ccc(C5(C(=O)O)CC5)c(C(F)(F)F)c4)cc3s2)cnn1C)c1ccccc1 [IT379]
50 to 500	Cc1noc(-c2ccc(-c3ccc(OC(C)C(=O)O)cc3)cc2)c1NC(=O)O[C@H](C)c1ccccc1 (single isomer, unassigned) [IT238]
< 50	C[C@@H](OC(=O)Nc1c(-c2cc3sc(-c4cc(F)c(Oc5ncccc5C(=O)O)c(F)c4)cc3s2)cnn1C)c1ccccc1 [IT470]
< 50	C[C@@H](OC(=O)Nc1c(-c2cc(F)c(-c3cc(F)c(Oc4ncccc4C(=O)O)c(F)c3)cc2F)cnn1C)c1ccccc1 [IT473]

Source: patent US20140213538A1, “LYSOPHOSPHATIDIC ACID RECEPTOR ANTAGONISTS” (InterMune, Inc., priority 2013, published 2014)
